In brackets after ≈: the same amount, converted by molar mass. Like-named read-outs stand apart in the source and are kept apart here.
Assays:
E. faecalis GC 2265 = test: MIC, broth microdilution; conditions: Enterococcus faecalis
E. coli GC 2235 = test: MIC, broth microdilution; conditions: Escherichia coli
Experimental: Antimicrobial susceptibility testing. The in vitro activities of the antibiotics are determined by the broth microdilution method as recommended by the National Committee for Clinical Laboratory Standards (NCCLS) (1). Mueller-Hinton II broth (MHBII)(BBL Cockeysville, Md.) is the medium employed in the testing procedures. Microtiter plates containing serial dilutions of each antimicrobial agent are inoculated with each organism to yield the appropriate density (10^5 CFU/ml) in a 100 μl final volume. The plates are incubated for 18-22 hours at 35° C. in ambient air.
Representative compounds were first incubated in mouse serum for an hour prior to the in vitro testing against a panel of selected gram-positive and gram-negative bacteria strains. All compounds were also pre-incubated in water for an hour prior to testing as control. Representative compounds of Formula I were incubated in human serum prior to MIC determination.

E. coli GC 6465 = test: MIC, broth microdilution; conditions: Escherichia coli
S. aureus GC 6469 = test: MIC, broth microdilution; conditions: Staphylococcus aureus
E. coli GC 2236 = test: MIC, broth microdilution; conditions: Escherichia coli
P. aeruginosa GC 2214 = test: MIC, broth microdilution; conditions: Pseudomonas aeruginosa
E. coli GC 2271 = test: MIC, broth microdilution; conditions: Escherichia coli
E. coli GC 2233 = test: MIC, broth microdilution; conditions: Escherichia coli
E. coli GC 4560 = test: MIC, broth microdilution; conditions: Escherichia coli
S. agalactiae GC 4564 = test: MIC, broth microdilution; conditions: Streptococcus agalactiae
Staph. = test: Range of MIC for Staph. strains, including MRSA; conditions: Staphylococcus aureus
E. coli = test: Range of MIC for E. coli strains; conditions: Escherichia coli
E. coli GC 1073 = test: MIC, broth microdilution; conditions: Escherichia coli
E. coli GC 2270 = test: MIC, broth microdilution; conditions: Escherichia coli
S. aureus GC 4536 = test: MIC, broth microdilution; conditions: Staphylococcus aureus
E. faecalis GC 2242 = test: MIC, broth microdilution; conditions: Enterococcus faecalis
E. coli GC 4559 = test: MIC, broth microdilution; conditions: Escherichia coli
S. aureus GC 6467 = test: MIC, broth microdilution; conditions: Staphylococcus aureus
E. faecalis GC 4555 = test: MIC, broth microdilution; conditions: Enterococcus faecalis
E. coli GC 2203 = test: MIC, broth microdilution; conditions: Escherichia coli

CN(C)c1cc(NC(=O)CN(C(=O)OCOC(=O)C2CCCC2)C(C)(C)C)c(O)c2c1C[C@H]1C[C@H]3[C@H](N(C)C)C(O)=C(C(N)=O)C(=O)[C@@]3(O)C(O)=C1C2=O [Example 46, ({[(2-{[(5aR,6aS,7S,10aS)-9-(aminocarbonyl)-4,7-bis(dimethylamino)-1,8,10a,11-tetrahydroxy-10,12-dioxo-5,5a,6,6a,7,10,10a,12-octahydrotetracen-2-yl]amino}-2-oxoethyl)(tert-butyl)amino]carbonyl}oxy)methyl cyclopentanecarboxylate]
MIC (E. faecalis GC 2265; GC2265, read-out: MINIMAL INHIBITORY CONCENTRATION MIC, pre-incubated in Human Serum): 1 µg/mL (≈ 1.32 µM) | MIC (E. faecalis GC 2265; GC2265, read-out: MINIMAL INHIBITORY CONCENTRATION MIC, pre-incubated in Mouse Serum): 0.5 µg/mL (≈ 0.662 µM) | MIC (E. faecalis GC 2265; GC2265, read-out: MINIMAL INHIBITORY CONCENTRATION MIC, pre-incubated in Water): 2 µg/mL (≈ 2.65 µM) | MIC (E. coli GC 2235; GC2235, read-out: MINIMAL INHIBITORY CONCENTRATION MIC, pre-incubated in Human Serum): 4 µg/mL (≈ 5.29 µM) | MIC (E. coli GC 2235; GC2235, read-out: MINIMAL INHIBITORY CONCENTRATION MIC, pre-incubated in Mouse Serum): 0.5 µg/mL (≈ 0.662 µM) | MIC (E. coli GC 2235; GC2235, read-out: MINIMAL INHIBITORY CONCENTRATION MIC, pre-incubated in Water): 64 µg/mL (≈ 84.7 µM) | MIC (E. coli GC 6465; GC6465, read-out: MINIMAL INHIBITORY CONCENTRATION MIC, pre-incubated in Human Serum): 16 µg/mL (≈ 21.2 µM) | MIC (E. coli GC 6465; GC6465, read-out: MINIMAL INHIBITORY CONCENTRATION MIC, pre-incubated in Mouse Serum): 2 µg/mL (≈ 2.65 µM) | MIC (E. coli GC 6465; GC6465, read-out: MINIMAL INHIBITORY CONCENTRATION MIC, pre-incubated in Water): > 64 µg/mL | MIC (S. aureus GC 6469; GC6469, read-out: MINIMAL INHIBITORY CONCENTRATION MIC, pre-incubated in Human Serum): 0.5 µg/mL (≈ 0.662 µM) | MIC (S. aureus GC 6469; GC6469, read-out: MINIMAL INHIBITORY CONCENTRATION MIC, pre-incubated in Mouse Serum): 1 µg/mL (≈ 1.32 µM) | MIC (S. aureus GC 6469; GC6469, read-out: MINIMAL INHIBITORY CONCENTRATION MIC, pre-incubated in Water): 1 µg/mL (≈ 1.32 µM) | MIC (E. coli GC 2236; GC2236, read-out: MINIMAL INHIBITORY CONCENTRATION MIC, pre-incubated in Human Serum): 4 µg/mL (≈ 5.29 µM) | MIC (E. coli GC 2236; GC2236, read-out: MINIMAL INHIBITORY CONCENTRATION MIC, pre-incubated in Mouse Serum): 0.5 µg/mL (≈ 0.662 µM) | MIC (E. coli GC 2236; GC2236, read-out: MINIMAL INHIBITORY CONCENTRATION MIC, pre-incubated in Water): 64 µg/mL (≈ 84.7 µM) | MIC (P. aeruginosa GC 2214; GC2214, read-out: MINIMAL INHIBITORY CONCENTRATION MIC, pre-incubated in Human Serum): > 64 µg/mL | MIC (P. aeruginosa GC 2214; GC2214, read-out: MINIMAL INHIBITORY CONCENTRATION MIC, pre-incubated in Mouse Serum): 16 µg/mL (≈ 21.2 µM) | MIC (P. aeruginosa GC 2214; GC2214, read-out: MINIMAL INHIBITORY CONCENTRATION MIC, pre-incubated in Water): > 64 µg/mL | MIC (E. coli GC 2271; GC2271, read-out: MINIMAL INHIBITORY CONCENTRATION MIC, pre-incubated in Human Serum): 4 µg/mL (≈ 5.29 µM) | MIC (E. coli GC 2271; GC2271, read-out: MINIMAL INHIBITORY CONCENTRATION MIC, pre-incubated in Mouse Serum): 0.5 µg/mL (≈ 0.662 µM) | MIC (E. coli GC 2271; GC2271, read-out: MINIMAL INHIBITORY CONCENTRATION MIC, pre-incubated in Water): 64 µg/mL (≈ 84.7 µM) | MIC (E. coli GC 2233; GC2233, read-out: MINIMAL INHIBITORY CONCENTRATION MIC, pre-incubated in Human Serum): 4 µg/mL (≈ 5.29 µM) | MIC (E. coli GC 2233; GC2233, read-out: MINIMAL INHIBITORY CONCENTRATION MIC, pre-incubated in Mouse Serum): 0.5 µg/mL (≈ 0.662 µM) | MIC (E. coli GC 2233; GC2233, read-out: MINIMAL INHIBITORY CONCENTRATION MIC, pre-incubated in Water): 64 µg/mL (≈ 84.7 µM) | MIC (E. coli GC 4560; GC4560, read-out: MINIMAL INHIBITORY CONCENTRATION MIC, pre-incubated in Human Serum): 1 µg/mL (≈ 1.32 µM) | MIC (E. coli GC 4560; GC4560, read-out: MINIMAL INHIBITORY CONCENTRATION MIC, pre-incubated in Mouse Serum): 0.5 µg/mL (≈ 0.662 µM) | MIC (E. coli GC 4560; GC4560, read-out: MINIMAL INHIBITORY CONCENTRATION MIC, pre-incubated in Water): 4 µg/mL (≈ 5.29 µM) | MIC (S. agalactiae GC 4564; GC4564, read-out: MINIMAL INHIBITORY CONCENTRATION MIC, pre-incubated in Human Serum): 0.25 µg/mL (≈ 0.331 µM) | MIC (S. agalactiae GC 4564; GC4564, read-out: MINIMAL INHIBITORY CONCENTRATION MIC, pre-incubated in Mouse Serum): 0.25 µg/mL (≈ 0.331 µM) | MIC (S. agalactiae GC 4564; GC4564, read-out: MINIMAL INHIBITORY CONCENTRATION MIC, pre-incubated in Water): 0.25 µg/mL (≈ 0.331 µM) | MIC (Staph.; MRSA, read-out: Range of MIC, Staph (Mouse Serum)): 0.25 to 1 µg/mL (≈ 0.331 to 1.32 µM) | MIC (Staph.; MRSA, read-out: Range of MIC, Staph (Water)): 0.25 to 2 µg/mL (≈ 0.331 to 2.65 µM) | MIC (Staph.; read-out: Minimum inhibitory concentration (MIC), Staph (Human Serum)): 0.25 to 1 µg/mL (≈ 0.331 to 1.32 µM) | MIC (Staph.; read-out: Minimum inhibitory concentration (MIC), Staph (Water)): 0.25 to 2 µg/mL (≈ 0.331 to 2.65 µM) | MIC (E. coli; 20 h, read-out: Range of MIC, E. coli (Mouse Serum)): 0.5 to 2 µg/mL (≈ 0.662 to 2.65 µM) | MIC (E. coli; read-out: Minimum inhibitory concentration (MIC), E. coli (Human Serum)): 4 to 16 µg/mL (≈ 5.29 to 21.2 µM) | MIC (E. coli GC 1073; GC1073, read-out: MINIMAL INHIBITORY CONCENTRATION MIC, pre-incubated in Human Serum): 8 µg/mL (≈ 10.6 µM) | MIC (E. coli GC 1073; GC1073, read-out: MINIMAL INHIBITORY CONCENTRATION MIC, pre-incubated in Mouse Serum): 1 µg/mL (≈ 1.32 µM) | MIC (E. coli GC 1073; GC1073, read-out: MINIMAL INHIBITORY CONCENTRATION MIC, pre-incubated in Water): > 64 µg/mL | MIC (E. coli GC 2270; GC2270, read-out: MINIMAL INHIBITORY CONCENTRATION MIC, pre-incubated in Human Serum): 4 µg/mL (≈ 5.29 µM) | MIC (E. coli GC 2270; GC2270, read-out: MINIMAL INHIBITORY CONCENTRATION MIC, pre-incubated in Mouse Serum): 0.5 µg/mL (≈ 0.662 µM) | MIC (E. coli GC 2270; GC2270, read-out: MINIMAL INHIBITORY CONCENTRATION MIC, pre-incubated in Water): > 64 µg/mL | MIC (S. aureus GC 4536; GC4536, read-out: MINIMAL INHIBITORY CONCENTRATION MIC, pre-incubated in Human Serum): 0.5 µg/mL (≈ 0.662 µM) | MIC (S. aureus GC 4536; GC4536, read-out: MINIMAL INHIBITORY CONCENTRATION MIC, pre-incubated in Mouse Serum): 0.5 µg/mL (≈ 0.662 µM) | MIC (S. aureus GC 4536; GC4536, read-out: MINIMAL INHIBITORY CONCENTRATION MIC, pre-incubated in Water): 0.5 µg/mL (≈ 0.662 µM) | MIC (E. faecalis GC 2242; GC2242, read-out: MINIMAL INHIBITORY CONCENTRATION MIC, pre-incubated in Human Serum): 1 µg/mL (≈ 1.32 µM) | MIC (E. faecalis GC 2242; GC2242, read-out: MINIMAL INHIBITORY CONCENTRATION MIC, pre-incubated in Mouse Serum): 0.5 µg/mL (≈ 0.662 µM) | MIC (E. faecalis GC 2242; GC2242, read-out: MINIMAL INHIBITORY CONCENTRATION MIC, pre-incubated in Water): 1 µg/mL (≈ 1.32 µM) | MIC (E. coli GC 4559; GC4559, read-out: MINIMAL INHIBITORY CONCENTRATION MIC, pre-incubated in Human Serum): 8 µg/mL (≈ 10.6 µM) | MIC (E. coli GC 4559; GC4559, read-out: MINIMAL INHIBITORY CONCENTRATION MIC, pre-incubated in Mouse Serum): 1 µg/mL (≈ 1.32 µM) | MIC (E. coli GC 4559; GC4559, read-out: MINIMAL INHIBITORY CONCENTRATION MIC, pre-incubated in Water): > 64 µg/mL | MIC (S. aureus GC 6467; GC6467, read-out: MINIMAL INHIBITORY CONCENTRATION MIC, pre-incubated in Human Serum): 0.5 µg/mL (≈ 0.662 µM) | MIC (S. aureus GC 6467; GC6467, read-out: MINIMAL INHIBITORY CONCENTRATION MIC, pre-incubated in Mouse Serum): 1 µg/mL (≈ 1.32 µM) | MIC (S. aureus GC 6467; GC6467, read-out: MINIMAL INHIBITORY CONCENTRATION MIC, pre-incubated in Water): 1 µg/mL (≈ 1.32 µM) | MIC (E. faecalis GC 4555; GC4555, read-out: MINIMAL INHIBITORY CONCENTRATION MIC, pre-incubated in Human Serum): 0.5 µg/mL (≈ 0.662 µM) | MIC (E. faecalis GC 4555; GC4555, read-out: MINIMAL INHIBITORY CONCENTRATION MIC, pre-incubated in Mouse Serum): 0.5 µg/mL (≈ 0.662 µM) | MIC (E. faecalis GC 4555; GC4555, read-out: MINIMAL INHIBITORY CONCENTRATION MIC, pre-incubated in Water): 2 µg/mL (≈ 2.65 µM) | MIC (E. coli GC 2203; GC2203, read-out: MINIMAL INHIBITORY CONCENTRATION MIC, pre-incubated in Human Serum): 8 µg/mL (≈ 10.6 µM) | MIC (E. coli GC 2203; GC2203, read-out: MINIMAL INHIBITORY CONCENTRATION MIC, pre-incubated in Mouse Serum): 0.5 µg/mL (≈ 0.662 µM) | MIC (E. coli GC 2203; GC2203, read-out: MINIMAL INHIBITORY CONCENTRATION MIC, pre-incubated in Water): > 64 µg/mL

Source: patent US20070049564A1 (Wyeth, priority 2005, published 2007)
